Active and inactive are the calls of the source. Rule as the data show it, for most assays here: actives have a measured EC50 and inactives only a lower limit.
Assays:
[1] = system: Streptococcus sp. 'group A'; assay: Streptococcus pyogenes SK(-)GAS viability under kanamycin – luminescence, BacTiterGlo, confirmation, counter-screen for streptokinase expression inhibitor project, dose response (AID 1900); type: functional, organism-based
Streptokinase A = target: T1, Streptokinase A (Streptococcus pyogenes serotype M1, UniProt P10520); assay: viability-normalized secreted streptokinase activity reduction – plasminogen activation absorbance, OD405, dose response (AID 1914); type: functional, Streptococcus pyogenes M1 GAS;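 also: secreted streptokinase activity via plasminogen activation per viability signal from cell pellet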
T1 sequence (P10520 whole entry): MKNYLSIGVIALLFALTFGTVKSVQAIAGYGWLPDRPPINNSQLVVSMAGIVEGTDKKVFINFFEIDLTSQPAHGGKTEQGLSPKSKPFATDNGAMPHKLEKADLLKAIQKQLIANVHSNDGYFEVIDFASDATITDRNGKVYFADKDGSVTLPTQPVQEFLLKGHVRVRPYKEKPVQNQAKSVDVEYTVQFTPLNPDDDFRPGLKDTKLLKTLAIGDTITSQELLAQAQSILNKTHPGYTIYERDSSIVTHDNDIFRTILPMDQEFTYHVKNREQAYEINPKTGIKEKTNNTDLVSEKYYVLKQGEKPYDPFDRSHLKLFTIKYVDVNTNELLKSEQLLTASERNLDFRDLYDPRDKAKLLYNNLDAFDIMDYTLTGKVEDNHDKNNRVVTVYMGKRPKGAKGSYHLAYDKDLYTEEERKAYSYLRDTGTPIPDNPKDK

[2] = NIH3T3 cell viability loss – ATP luminescence, mouse fibroblasts, counter-screen, dose response (AID 2010); type: functional, cell-based;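 also: cells exposed to compound for about 90 hours before reading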
BJ [3] = assay: cells; type: functional, cell-based; conditions: Homo sapiens
[4] = target: T2, Serine/threonine-protein phosphatase (Candida dubliniensis (strain CD36 / CBS 7987 / NCPF 3949 / NRRLY-17841) (Yeast), UniProt B9W6M3); assay: Fluorescence Cell-Based Secondary Assay to Identify Inhibitors of Calcineurin. [Related pubchem assays (depositor defined):AID1979, AID2007]; type: functional
T2 sequence (B9W6M3 whole entry): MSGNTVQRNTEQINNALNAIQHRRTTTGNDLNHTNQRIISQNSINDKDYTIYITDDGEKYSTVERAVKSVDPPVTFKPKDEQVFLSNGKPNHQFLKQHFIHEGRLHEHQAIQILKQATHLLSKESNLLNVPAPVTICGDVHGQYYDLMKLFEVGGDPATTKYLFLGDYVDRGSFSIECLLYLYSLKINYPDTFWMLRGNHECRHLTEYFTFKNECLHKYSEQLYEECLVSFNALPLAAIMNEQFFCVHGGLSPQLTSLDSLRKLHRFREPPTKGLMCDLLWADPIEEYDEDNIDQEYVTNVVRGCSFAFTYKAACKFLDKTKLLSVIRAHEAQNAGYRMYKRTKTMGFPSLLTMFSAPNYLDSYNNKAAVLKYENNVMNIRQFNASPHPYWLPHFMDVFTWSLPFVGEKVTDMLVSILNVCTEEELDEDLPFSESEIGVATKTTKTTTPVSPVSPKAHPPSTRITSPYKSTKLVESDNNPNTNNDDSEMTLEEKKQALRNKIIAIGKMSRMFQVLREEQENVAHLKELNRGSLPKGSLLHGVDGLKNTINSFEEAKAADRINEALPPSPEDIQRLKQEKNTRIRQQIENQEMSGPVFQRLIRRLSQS

BJ [5] = assay: BJ-TERT-LT-ST fibroblast viability loss – cell-based, RAS-independent, luminescence, dose response (AID 1935); type: functional; conditions: Homo sapiens;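 also: BJ fibroblasts immortalized with TERT plus LT and ST oncogenes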
[6] = target: Heat shock protein HSP 90-alpha (Homo sapiens, UniProt P07900); type: functional, organism-based
BJ [7] = assay: BJ-TERT fibroblast viability loss – cell-based, RAS-independent, luminescence, dose response (AID 1933); type: functional; conditions: Homo sapiens
[8] = NIH-3T3 fibroblast cytotoxicity, dose response, cytotoxicity control, cell-based, fluorescence, Alamar Blue, secondary assay (AID 2327); type: functional;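 also: NIH-3T3 mouse fibroblasts cultured with fluconazole at 8 µg/mL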
[9] = fluconazole-exposed Candida albicans growth modulators – fluorescence, retest, confirmation (AID 2467); type: functional, cell-based
[10] = DRD fibroblast viability loss – cell-based, non-viral oncogenic, luminescence, dose response (AID 1934); type: functional; conditions: Homo sapiens
[11] = Trypanosoma cruzi growth suppression in host cells – NIH3T3 host cells, beta-gal luminescence, confirmation (AID 2044); type: functional, cell-based;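 also: intracellular parasites grown in NIH/3T3 mouse fibroblasts as host cells; luminescent beta-galactosidase reporter signal from transgenic T. cruzi replicating inside host cells; inhibitors lower the luminescence signal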
[12] = target: ATP-dependent molecular chaperone HSP82 (Candida albicans (strain WO-1) (Yeast), UniProt C4YTQ8); assay: steroid-induced GRE reporter decrease in yeast – S. cerevisiae, luminescence, Hsp90 inhibitor project, dose response (AID 2400); type: functional, cell-based;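 also: beta-galactosidase luminescence from glucocorticoid response element reporter as proxy for Hsp90 function; inhibitor potency where signal loss means Hsp90 inhibition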
[13] = target: T2, Serine/threonine-protein phosphatase; assay: blockers of CaCl2-induced CDRE-lacZ signaling – S. cerevisiae, luminescence, secondary, dose response (AID 2388); type: functional, cell-based;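 also: yeast reporter cells carrying a calcineurin-responsive lacZ construct stimulated with calcium chloride; luminescent beta-galactosidase reporter signal in whole cells rather than isolated phosphatase activity; potency for inhibition where a drop in reporter signal means calcineurin blockade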
Streptococcus = assay: GAS UMAA2166 growth inhibition – luminescence, BacTiterGlo, counter-screen for streptokinase expression inhibitor project, dose response (AID 1915); type: functional, organism-based;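 also: potency for reduction of bacterial viability or growth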
NS3 = NS3 (Hepatitis C virus, UniProt A3EZJ3); assay: PubChem AID 2173; parameters: species or system Hepacivirus hominis
[14] = target: T3, Heat shock factor protein 1 (Mus musculus, UniProt P38532); assay: enhancement of HSF1-driven luciferase signal – cell-based, NIH3T3, luminescence, dose retest, confirmation (AID 435004); type: functional;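 also: stress induced by proteasome inhibitor MG132 added 30 min after compound; luciferase reporter driven by HSF1 response element in NIH3T3 cells; actives raise luminescence as potentiators of the MG132 stress response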
T3 sequence (P38532 whole entry): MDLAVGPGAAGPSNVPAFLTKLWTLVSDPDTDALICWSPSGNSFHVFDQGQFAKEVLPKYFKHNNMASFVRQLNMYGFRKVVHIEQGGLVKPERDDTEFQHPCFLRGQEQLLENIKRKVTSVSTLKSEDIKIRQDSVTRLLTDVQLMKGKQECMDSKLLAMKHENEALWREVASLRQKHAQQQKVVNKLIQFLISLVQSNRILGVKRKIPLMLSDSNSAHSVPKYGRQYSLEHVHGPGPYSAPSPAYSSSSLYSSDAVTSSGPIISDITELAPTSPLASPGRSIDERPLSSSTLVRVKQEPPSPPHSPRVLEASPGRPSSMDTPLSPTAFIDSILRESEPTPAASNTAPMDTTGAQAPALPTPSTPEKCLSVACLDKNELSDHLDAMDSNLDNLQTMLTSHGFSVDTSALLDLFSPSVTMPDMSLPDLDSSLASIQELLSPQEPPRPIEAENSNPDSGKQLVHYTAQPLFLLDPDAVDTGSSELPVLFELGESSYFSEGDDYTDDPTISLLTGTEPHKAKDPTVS

HeLa = assay: ATP-based viability loss in HeLa cells – cell-based, CellTiter-Glo luminescence, cherry-pick samples, cytotoxicity control for MITF activator project, dose response (AID 540259); type: functional; conditions: Homo sapiens
Kallikrein-7 = Kallikrein-7 (Homo sapiens, UniProt P49862); assay: Fluorescence Intensity-based biochemical primary high throughput dose response assay to identify activators of kallikrein-7 (K7) zymogen.
CAAX prenyl protease 2 [15] = target: CAAX prenyl protease 2 (Saccharomyces cerevisiae S288c, UniProt Q03530); type: biochemical
CAAX prenyl protease 2 [16] = target: CAAX prenyl protease 2 (Homo sapiens, UniProt Q9Y256); assay: inhibition of Ras-converting CAAX protease Rce1 – biochemical, yeast membranes, quenched-peptide fluorescence, cherry-pick, dose response (AID 588849)
Trypsin = Trypsin (Sus scrofa, UniProt P00761); assay: trypsin protease activity blockade – biochemical, quenched peptide fluorescence, cherry-pick, selectivity assay for Rce1 protease inhibitor project, dose response (AID 488789)
Sequence of Trypsin (P00761 whole entry): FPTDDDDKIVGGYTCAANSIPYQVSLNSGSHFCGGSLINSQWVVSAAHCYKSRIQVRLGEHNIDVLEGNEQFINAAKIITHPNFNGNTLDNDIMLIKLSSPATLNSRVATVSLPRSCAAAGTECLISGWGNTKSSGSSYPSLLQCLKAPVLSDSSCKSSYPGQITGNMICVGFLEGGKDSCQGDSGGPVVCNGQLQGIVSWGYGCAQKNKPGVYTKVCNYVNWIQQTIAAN

Sequence of Kallikrein-7 (P49862 whole entry): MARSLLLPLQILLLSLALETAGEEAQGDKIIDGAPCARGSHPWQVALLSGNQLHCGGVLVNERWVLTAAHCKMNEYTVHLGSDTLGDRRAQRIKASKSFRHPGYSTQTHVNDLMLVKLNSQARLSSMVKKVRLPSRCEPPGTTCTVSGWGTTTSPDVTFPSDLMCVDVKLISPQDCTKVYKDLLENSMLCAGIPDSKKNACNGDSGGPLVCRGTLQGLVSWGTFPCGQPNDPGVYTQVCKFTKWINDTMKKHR
Sequence of CAAX prenyl protease 2 (Homo sapiens, UniProt Q9Y256) (Q9Y256 whole entry): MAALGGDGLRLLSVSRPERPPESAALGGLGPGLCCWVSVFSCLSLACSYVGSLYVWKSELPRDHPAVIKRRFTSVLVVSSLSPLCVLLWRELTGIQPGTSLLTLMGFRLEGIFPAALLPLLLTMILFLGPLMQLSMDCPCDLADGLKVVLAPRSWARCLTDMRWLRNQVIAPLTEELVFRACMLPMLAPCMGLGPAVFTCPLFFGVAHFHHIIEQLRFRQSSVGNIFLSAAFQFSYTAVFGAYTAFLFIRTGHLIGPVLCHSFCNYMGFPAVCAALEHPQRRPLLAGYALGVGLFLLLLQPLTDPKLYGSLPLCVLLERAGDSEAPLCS
Sequence of NS3 (A3EZJ3 whole entry): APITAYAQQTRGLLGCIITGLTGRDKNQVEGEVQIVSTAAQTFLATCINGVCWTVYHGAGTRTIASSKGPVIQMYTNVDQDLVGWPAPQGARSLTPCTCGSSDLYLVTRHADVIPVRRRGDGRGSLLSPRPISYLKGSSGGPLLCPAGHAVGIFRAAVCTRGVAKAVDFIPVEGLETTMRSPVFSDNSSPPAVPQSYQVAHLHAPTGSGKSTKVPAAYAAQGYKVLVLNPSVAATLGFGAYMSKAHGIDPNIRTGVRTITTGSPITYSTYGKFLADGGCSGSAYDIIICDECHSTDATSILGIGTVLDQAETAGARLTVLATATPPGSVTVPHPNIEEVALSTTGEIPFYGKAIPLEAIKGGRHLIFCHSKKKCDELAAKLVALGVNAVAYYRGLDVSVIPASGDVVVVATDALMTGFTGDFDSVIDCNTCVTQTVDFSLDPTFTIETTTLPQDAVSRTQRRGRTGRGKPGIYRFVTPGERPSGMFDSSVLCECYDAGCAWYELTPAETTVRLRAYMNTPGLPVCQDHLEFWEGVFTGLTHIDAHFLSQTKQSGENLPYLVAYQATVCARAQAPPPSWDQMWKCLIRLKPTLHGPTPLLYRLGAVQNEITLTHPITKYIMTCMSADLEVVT
Sequence of CAAX prenyl protease 2 (Saccharomyces cerevisiae S288c, UniProt Q03530) (Q03530 whole entry): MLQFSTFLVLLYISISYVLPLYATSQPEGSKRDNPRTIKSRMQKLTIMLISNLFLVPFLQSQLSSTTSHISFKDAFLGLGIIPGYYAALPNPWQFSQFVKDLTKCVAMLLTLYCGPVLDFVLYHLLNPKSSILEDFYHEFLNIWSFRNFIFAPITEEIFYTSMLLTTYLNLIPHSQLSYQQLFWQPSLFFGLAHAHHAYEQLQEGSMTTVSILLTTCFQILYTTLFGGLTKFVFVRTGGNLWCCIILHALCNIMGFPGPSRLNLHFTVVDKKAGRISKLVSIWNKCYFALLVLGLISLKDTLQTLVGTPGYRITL
Sequence of ATP-dependent molecular chaperone HSP82 (C4YTQ8 whole entry): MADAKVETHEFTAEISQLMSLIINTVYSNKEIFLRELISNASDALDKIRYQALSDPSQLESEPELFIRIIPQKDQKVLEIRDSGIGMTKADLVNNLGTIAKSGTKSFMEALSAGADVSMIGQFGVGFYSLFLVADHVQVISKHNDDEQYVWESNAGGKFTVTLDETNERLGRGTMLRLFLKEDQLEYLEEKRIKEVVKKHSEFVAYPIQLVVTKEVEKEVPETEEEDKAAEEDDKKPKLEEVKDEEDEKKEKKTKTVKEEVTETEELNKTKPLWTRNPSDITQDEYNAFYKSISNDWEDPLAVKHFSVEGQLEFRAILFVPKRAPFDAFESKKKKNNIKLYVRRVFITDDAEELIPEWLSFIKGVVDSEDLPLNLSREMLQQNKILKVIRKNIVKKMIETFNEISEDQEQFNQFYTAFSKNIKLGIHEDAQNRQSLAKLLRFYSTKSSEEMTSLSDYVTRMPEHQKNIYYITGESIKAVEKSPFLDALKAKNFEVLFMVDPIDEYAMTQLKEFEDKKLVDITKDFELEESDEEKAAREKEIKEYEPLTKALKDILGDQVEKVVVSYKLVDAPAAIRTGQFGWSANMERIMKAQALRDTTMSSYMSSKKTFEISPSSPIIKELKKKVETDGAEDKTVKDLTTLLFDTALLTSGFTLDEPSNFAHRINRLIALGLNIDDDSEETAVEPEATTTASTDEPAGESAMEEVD

Cc1ccc(/C=C/C(=O)c2ccccc(=O)c2O)cc1C
> 150 µM (not active): EC50 (Streptokinase A) | EC50 (BJ [5])
active: EC50 [1] 5.05 µM | EC50 [2] 17.5 µM | EC50 (BJ [3]) 24.9 µM | EC50 [4] 12.9 µM | AC50 [6] 4.22 µM | EC50 (BJ [7]) 23.7 µM | EC50 [9] 0.851 µM | EC50 [10] 77.7 µM | EC50 [11] 1.83 µM | EC50 [12] 2.09 µM | EC50 [13] 5.55 µM | EC50 (Streptococcus) 11.5 µM | IC50 (NS3) 2.63 µM | EC50 [14] 40 µM
inconclusive: EC50 [8] > 160 µM

COc1ccc(C(S)=Nc2ccc(C)cc2)cc1
active: AC50 (HeLa) 194 µM

CCNc1nc(C)c(CN(C(C)=O)c2ccccc2)nc1C#N
inactive: EC50 (Kallikrein-7) > 69.5 µM
active: AC50 (CAAX prenyl protease 2 [15]) 48.9 µM | AC50 (CAAX prenyl protease 2 [16]) 5.91 µM | AC50 (Trypsin) 5.26 µM

— ChEMBL document CHEMBL1201862, “PubChem BioAssay data set” (2004)
